Measurements taken from patent US4103019A, “Triterpene derivatives” (Laboratorios Landerlan, S. A., priority 1975, dated 1978).

What was measured:
[1] = system: different artificially invoked conditions; experiment: Neurotropic, musculotropic, antihistaminic, anti-ulcer and healing activity in different artificially invoked conditions; format: in vivo; settings: different artificially invoked conditions in mice, rats, Guinea pigs, rabbits and dogs
[2] = system: ulcers (Pyloric Ligature, M. Shay); experiment: Anti-ulcer action, pyloric ligature ulcers (M. Shay); format: in vivo, rats
[3] = system: ulcers (Psychosomatic Frustration, M. Bonfils); experiment: Anti-ulcer action, psychosomatic frustration ulcers (M. Bonfils); format: in vivo, rats; settings: oral
ulcers (reserpine) = experiment: Anti-ulcer action, reserpine-induced ulcers; format: in vivo, rats; settings: intra-peritoneal
Source text: Dose mg./Kg. Inhibition %
Reserpine 5 Intra-peritoneal

ulcers (phenylbutazone) = experiment: Anti-ulcer action, phenylbutazone-induced ulcers; format: in vivo, rats; settings: oral

CC1(C(=O)OCC2CCC[N+]2(C)C)CCC2(C)CCC3(C)C(=CC(=O)C4C5(C)CCC(O)C(C)(C)C5CCC43C)C2C1 (centres unmarked) [Example 3, 2-(glycyrrhetinoylmethyl) N-methyl pyrrolidine methylsulfate]
activity as neurotropic, musculotropic antihistaminic, anti-ulcer and healing agents [1]: outstanding activity
Inhibition % ([2]; 2.5 mg./Kg., intra-peritoneal): 52%
Inhibition % ([2]; 5 mg./Kg., intra-dermal): 36%
Inhibition % ([2]; 10 mg./Kg., intra-peritoneal): 69%
Inhibition % ([2]; 15 mg./Kg., intra-peritoneal): 48%
Inhibition % ([2]; 25 mg./Kg., intra-peritoneal): 69%
Inhibition % ([3]; 5 mg./Kg.): 42%
Inhibition % ([3]; 10 mg./Kg.): 33%
Inhibition % ([3]; 20 mg./Kg.): 18%
Inhibition % (ulcers (reserpine); 5 mg./Kg.): 42%
Inhibition % (ulcers (reserpine); 10 mg./Kg.): 25%
Inhibition % (ulcers (reserpine); 25 mg./Kg.): 25%

CC1(C(=O)OCC2CCC[N+]2(C)C)CCC2(C)CCC3(C)C(=CC(=O)C4C5(C)CCC(O)C(C)(C)C5CCC43C)C2C1 (centres unmarked) [Example 4, 2(glycyrrhetinoyl methyl) N-methylpyrrolidine methylbromide]
Inhibition % (ulcers (phenylbutazone); 5 mg./Kg.): 22%
Inhibition % (ulcers (phenylbutazone); 10 mg./Kg.): 23%
activity as neurotropic, musculotropic antihistaminic, anti-ulcer and healing agents [1]: outstanding activity
Inhibition % ([2]; 2.5 mg./Kg., intra-dermal): 27%
Inhibition % ([2]; 5 mg./Kg., intra-dermal): 29%
Inhibition % ([2]; 5 mg./Kg., intra-peritoneal): 65%
Inhibition % ([2]; 10 mg./Kg., intra-dermal): 24%
Inhibition % ([2]; 10 mg./Kg., intra-peritoneal): 55%
Inhibition % ([3]; 5 mg./Kg.): 52%
Inhibition % ([3]; 10 mg./Kg.): 43%
Inhibition % ([3]; 50 mg./Kg.): 25%
Inhibition % (ulcers (reserpine); 5 mg./Kg.): 8%
Inhibition % (ulcers (reserpine); 10 mg./Kg.): 47%
Inhibition % (ulcers (reserpine); 25 mg./Kg.): 13%
